# Experimental data as given in patent publication US7718669B2, “Triazolopyridine derivatives as inhibitors of lipases and phospholipases” (Sanofi-Aventis, priority 2005, dated 2010).
# Target: T1, endothelial lipase (EL) (Homo sapiens, UniProt Q9Y5X9)
# T1 construct: made in house; host or cells: recombinant CHO or HEK293 cell lines; concentrated conditioned medium
# T1 sequence (Q9Y5X9 21-500): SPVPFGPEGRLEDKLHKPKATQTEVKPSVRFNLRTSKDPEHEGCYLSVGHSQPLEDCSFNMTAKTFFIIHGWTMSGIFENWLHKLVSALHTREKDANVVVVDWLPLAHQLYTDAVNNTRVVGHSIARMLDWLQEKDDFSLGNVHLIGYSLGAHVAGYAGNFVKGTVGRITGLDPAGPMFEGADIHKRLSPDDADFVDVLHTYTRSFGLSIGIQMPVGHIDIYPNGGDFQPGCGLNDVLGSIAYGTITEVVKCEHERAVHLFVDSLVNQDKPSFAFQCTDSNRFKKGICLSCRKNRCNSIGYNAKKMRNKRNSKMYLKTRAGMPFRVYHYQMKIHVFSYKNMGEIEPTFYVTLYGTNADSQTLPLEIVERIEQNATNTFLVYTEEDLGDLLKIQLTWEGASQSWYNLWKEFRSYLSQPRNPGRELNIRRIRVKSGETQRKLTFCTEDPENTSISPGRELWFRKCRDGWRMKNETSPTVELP
# Experiment: EL inhibition assay
# Type: biochemical
# Details: EL from conditioned medium of recombinant cell lines (CHO, HEK293); Bodipy phospholipid substrate; 37° C. for 60 minutes
# Description: EL is released as secretory protein in high concentration into cell culture medium (conditioned medium) by recombinant cell lines (CHO, HEK293). This is employed as enzyme solution after concentration.
# The phospholipase-specific substrate 1,2-bis(4,4-difluoro-5,7-dimethyl-4-bora-3a,4a-diaza-s-indacene-3-undecanoyl)-sn-glycero-3-phosphocholine, (manufacturer Molecular Probes) is used to characterize the enzymatic activity of endothelial lipase and the effect of inhibitors. Hydrolysis of the A1 ester linkage of this phospholipid by the enzyme liberates the fluorescent dye Bodipy which can be detected after separation by thin-layer chromatography on an HPTLC plate (silica gel 60, Merck) or directly in the reaction vessel by measuring the fluorescence. The substrate solution is prepared by taking up 100 μg of 1,2-bis(4,4-difluoro-5,7-dimethyl-4-bora-3a,4a-diaza-s-indacene-3-undecanoyl)-sn-glycero-3-phospho-choline (manufacturer Molecular Probes), 2.4 mg of tripalmitin (Sigma) and 7.9 mg of DOP-choline (1,2-dioleoyl-sn-glycero-3-phosphocholine) in 393 μl of chloroform and then transferring 157 μl into a fresh reaction vessel. After evaporation of the solvent, the lipid mixture is dissolved in 4 ml of 200 mM TRIS-HCl, 150 mM sodium chloride, pH=7.4, by sonication twice. The subsequent enzymic reaction takes place at 37° C. for 60 minutes. For this purpose, 45 μl of the substrate solution are incubated with 1 μl of inhibitor of appropriate concentration (dissolved in DMSO, pure DMSO solution is used as control) and 5 μl of enzyme solution (conditioned medium). Then 3 μl of the assay mixture are loaded onto an HPTLC plate (silica gel 60, Merck), and the liberated fluorescent dye is separated for detection with an eluent (diethyl ether:petroleum benzene:acetic acid [78:22:1]). After evaporation of the eluent, the plate is read in a fluorescence scanner. An increased release of the fluorescent dye in the uninhibited reaction is to be observed as a measure of the enzymic activity.
# The enzymatic activity is reduced as a function of the inhibitor concentration used, and the inhibitor concentration at which a half-maximum enzymic activity is observed is called IC50.
row,IC50 [µM],SMILES
1,0.74,Cc1ccccc1CNC(=O)n1nnc2nc(Cl)ccc21 [Example 54]
2,0.58,Cc1ccccc1CNC(=O)n1nnc2ncc(Cl)cc21 [Example 55]
3,0.04,CCCCCCNC(=O)n1nnc2nc(Cl)ccc21 [Example 56]
4,1.24,Cc1ccccc1CNC(=O)n1nnc2cc(Cl)cnc21 [Example 68]

# Target: T2, hormone sensitive lipase, HSL (Rattus norvegicus, UniProt P15304)
# T2 construct: Isolated rat fat cells are obtained from epididymal adipose tissue; from tissue; host or cells: fat cells from epididymal adipose tissue of male Wistar rats
# T2 sequence (P15304 301-1068 limits assumed): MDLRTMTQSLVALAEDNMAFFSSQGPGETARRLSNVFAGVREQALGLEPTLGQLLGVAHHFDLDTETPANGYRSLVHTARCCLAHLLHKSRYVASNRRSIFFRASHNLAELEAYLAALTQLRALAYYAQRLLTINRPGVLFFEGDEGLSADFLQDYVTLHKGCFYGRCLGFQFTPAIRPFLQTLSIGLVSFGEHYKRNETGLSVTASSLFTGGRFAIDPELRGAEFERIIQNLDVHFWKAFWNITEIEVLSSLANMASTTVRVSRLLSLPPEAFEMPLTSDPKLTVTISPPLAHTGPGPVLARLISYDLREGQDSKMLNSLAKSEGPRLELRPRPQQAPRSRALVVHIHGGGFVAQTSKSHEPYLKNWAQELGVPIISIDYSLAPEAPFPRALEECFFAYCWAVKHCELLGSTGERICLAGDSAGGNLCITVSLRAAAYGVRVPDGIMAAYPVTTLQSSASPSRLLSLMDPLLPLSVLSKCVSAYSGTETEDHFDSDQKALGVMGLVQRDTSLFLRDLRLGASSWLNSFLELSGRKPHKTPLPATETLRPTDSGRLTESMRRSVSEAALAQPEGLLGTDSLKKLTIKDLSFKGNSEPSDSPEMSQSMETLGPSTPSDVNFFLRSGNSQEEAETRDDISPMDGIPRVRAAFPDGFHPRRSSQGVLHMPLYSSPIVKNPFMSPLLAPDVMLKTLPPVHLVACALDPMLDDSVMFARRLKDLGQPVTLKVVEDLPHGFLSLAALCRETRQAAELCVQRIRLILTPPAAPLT
# Experiment: HSL inhibition assay
# Type: biochemical
# Details: partially purified HSL from rat fat cells; [3H]trioleoylglycerol substrate; 37° C. for 30 min
# Description: Preparation of the Partially Purified HSL:
# Isolated rat fat cells are obtained from epididymal adipose tissue from untreated male rats (Wistar, 220-250 g) by collagenase treatment in accordance with published methods (e.g. S, Nilsson et al., Anal. Biochem. 158, 1986, 399-407; G. Fredrikson et al., J. Biol. Chem. 256, 1981, 6311-6320; H. Tornquist et al., J. Biol. Chem. 251, 1976, 813-819). The fat cells from 10 rats are washed three times by flotation with 50 ml of homogenization buffer ([…] Tris/HCl, pH 7.4, 0.25 M sucrose, 1 mM ETDA, 1 mM DTT, 10 μg/ml leupeptin, 10 μg/ml antipain, 20 μg/ml pepstatin) each time and finally taken up in 10 ml of homogenization buffer. The fat cells are homogenized in a Teflon-in-glass homogenizer (Braun-Melsungen) by 10 strokes at 1500 rpm and 15° C. The homogenate is centrifuged (Sorvall SM24 tubes, 5000 rpm, 10 min, 4° C.). The subnatant between the layer of fat at the top and the pellet is removed and the centrifugation is repeated. The subnatant resulting therefrom is centrifuged again (Sorvall SM24 tubes, 20 000 rpm, 45 min, 4° C.). […] After incubation at 4° C. for 60 min (shaking at intervals of 15 min), the mixture is centrifuged (Sorvall SM24 tubes, 3000 rpm, 10 min, 4° C.). The supernatant is adjusted to pH 5.2 by adding glacial acetic acid and is incubated at 4° C. for 30 min. The precipitates are collected by centrifugation (Sorvall SS34, 12 000 rpm, 10 min, 4° C.) and suspended in 2.5 ml of 20 mM Tris/HCl, pH 7.0, 1 mM EDTA, 65 mM NaCl, 13% sucrose, 1 mM DTT, 10 μg/ml leupeptin/pepstatin/antipain. The suspension is dialyzed against 25 mM Tris/HCl, pH 7.4, 50% glycerol, 1 mM DTT, 10 μg/ml leupeptin, pepstatin, antipain at 4° C. overnight and then loaded onto a hydroxiapatite column (0.1 g per 1 ml of suspension, equilibrated with 10 mM potassium phosphate, pH 7.0, 30% glycerol, 1 mM DTT). The column is washed with four volumes of equilibration buffer at a flow rate of 20 to 30 ml/h. The HSL is eluted with one volume of equilibration buffer containing 0.5 M potassium phosphate and then dialyzed (see above) and concentrated 5- to 10-fold by ultrafiltration (Amicon Diaflo PM 10 Filter) at 4° C. The partially purified HSL can be stored at −70° C. for 4 to 6 weeks.
# To prepare the substrate, 25-50 μCi of [3H]trioleoylglycerol (in toluene), 6.8 μmol of unlabeled trioleoylglycerol and 0.6 mg of phospholipids (phosphatidylcholine/phosphatidylinositol 3:1 w/v) are mixed, dried with N2 and then taken up in 2 ml of 0.1 M KPi (pH 7.0) by ultrasound treatment (Branson 250, microtip, setting 1-2, 2×1 min with an interval of 1 min). After addition of 1 ml of KPi and renewed ultrasound treatment (4×30 sec on ice with intervals of 30 sec), 1 ml of 20% BSA (in KPi) is added (final concentration of trioleoylglycerol 1.7 mM). For the reaction, 100 μl of substrate solution are pipetted into 100 μl of HSL solution (HSL prepared as above, diluted in 20 mM KPi, pH 7.0, 1 mM EDTA, 1 mM DTT, 0.02% BSA, 20 μg/ml pepstatin, 10 μg/ml leupeptin) and incubated at 37° C. for 30 min. Addition of 3.25 ml of methanol/chloroform/heptane (10:9:7) and of 1.05 ml of 0.1 M K2CO3, 0.1 M boric acid (pH 10.5) is followed by thorough mixing and finally centrifugation (800×g, 20 min). After phase separation, one equivalent of the upper phase (1 ml) is removed and the radioactivity is determined by liquid scintillation measurement.
# Substances are normally tested in four independent mixtures. The inhibition of the HSL enzymatic activity by a test substance is determined by comparing with an uninhibited control reaction. The IC50 is calculated from an inhibition plot with at least 10 concentrations of the test substance. The GRAPHIT, Elsevier-BIOSOFT software package is used to analyze the data.
row,IC50 [µM],SMILES
1,0.5,"CC1CCN(C(=O)n2nnc3nc(Cl)ccc32)CC1 [Example 1, (5-Chloro-[1,2,3]triazolo[4,5-b]pyridin-1-yl)-(4-methylpiperidin-1-yl)-methanone]"
2,0.07,O=C(N1CCc2ccccc2C1)n1nnc2ncccc21 [Example 4]
3,0.3,"CC1CCN(C(=O)n2nnc3ncc(Cl)cc32)CC1 [Example 5, (6-Chloro-[1,2,3]triazolo[4,5-b]pyridin-1-yl)-(4-methyl-piperidin-1-yl)-methanone]"
4,0.607,Cc1cccc(C)c1N1CCN(C(=O)n2nnc3ncccc32)CC1 [Example 14]
5,0.45,COC(=O)c1ccc(C2CCN(C(=O)n3nnc4ncccc43)CC2)cc1 [Example 23]
6,0.175,CCCCCN(CCCCC)C(=O)n1nnc2ncccc21 [Example 24]
7,0.215,Cc1ccccc1N1CCN(C(=O)n2nnc3ncccc32)CC1 [Example 25]
8,0.198,O=C(N1CCN(c2ccc(-c3ccccc3)cc2)CC1)n1nnc2ncccc21 [Example 26]
9,0.585,CC1CC(C)CN(C(=O)n2nnc3ncccc32)C1 (centres unmarked) [Example 30]
10,0.136,CCCC1CCN(C(=O)n2nnc3ncccc32)CC1 [Example 31]
11,0.112,O=C(N1CCC(c2ccc3ccccc3c2)CC1)n1nnc2ncccc21 [Example 33]
12,0.78,O=C(C1CCC2(CC1)CCN(c1ccccc1)C2=O)n1nnc2ncccc21 (centres unmarked) [Example 35]
13,0.576,CCOc1ccc(N2CCN(C(=O)n3nnc4ncccc43)CC2)cc1 [Example 37]
14,0.062,O=C(N1CCN(c2ccc(OCc3ccccc3)cc2)CC1)n1nnc2ncccc21 [Example 41]
15,0.159,Nc1ccc(C2CCN(C(=O)n3nnc4ncccc43)CC2)cc1 [Example 42]
16,0.763,O=C(N1CCC(c2ccccc2F)CC1)n1nnc2ncccc21 [Example 43]
17,0.662,O=C(N1CCC(CCc2ccccc2)CC1)n1nnc2ncccc21 [Example 48]
18,0.367,CC1(C)CCCN(C(=O)n2nnc3ncccc32)C1 [Example 50]
19,0.237,CCCCCCCCN1CCN(C(=O)n2nnc3ncccc32)CC1 [Example 51]
20,0.826,O=C(N1CCC(c2cccc(C(F)(F)F)c2)CC1)n1nnc2ncccc21 [Example 53]
21,0.03,"CC1CCN(C(=O)n2nnc3ccc(Cl)nc32)CC1 [Example 61, (5-chloro-[1,2,3]triazolo[4,5-b]pyridin-3-yl)-(4-methylpiperidin-1-yl)-methanone]"
22,0.16,CC1CCN(C(=O)n2nnc3cccnc32)CC1 [Example 62]
23,0.965,CC1CCCN(C(=O)n2nnc3cccnc32)C1 (centres unmarked) [Example 63]
24,0.03,O=C(N1CCc2ccccc2C1)n1nnc2cccnc21 [Example 64]
25,0.15,"O=C(N1CCc2ccccc2C1)n1nnc2ccc(Cl)nc21 [Example 66, (5-chloro-[1,2,3]triazolo[4,5-b]pyridin-3-yl)-(3,4-dihydro-1H-isoquinolin-2-yl)-methanone]"
